Test results published in patent US5552411A, “Sulfonylquinolines as central nervous system and cardiovascular agents” (Warner-Lambert Company, priority 1995, dated 1996).

Tested on: rats
Assay: not given
Conditions: administration into the central nervous system; cited from earlier work

In the case of “NPY: Neuropeptide Y (NPY), involved in the control of feeding in mammals; agonist in the cAMP assay”, the effect on feeding is listed as “dramatic increase in feeding”.

Target: T1, Human Neuropeptide Y1 Receptors (Homo sapiens, UniProt P25929)
T1 construct: 50 μL SK-N-MC preparation containing 50 μg/tube membrane protein; host or cells: SK-N-MC human neuroblastoma cells (membranes)
T1 sequence (P25929 1-384): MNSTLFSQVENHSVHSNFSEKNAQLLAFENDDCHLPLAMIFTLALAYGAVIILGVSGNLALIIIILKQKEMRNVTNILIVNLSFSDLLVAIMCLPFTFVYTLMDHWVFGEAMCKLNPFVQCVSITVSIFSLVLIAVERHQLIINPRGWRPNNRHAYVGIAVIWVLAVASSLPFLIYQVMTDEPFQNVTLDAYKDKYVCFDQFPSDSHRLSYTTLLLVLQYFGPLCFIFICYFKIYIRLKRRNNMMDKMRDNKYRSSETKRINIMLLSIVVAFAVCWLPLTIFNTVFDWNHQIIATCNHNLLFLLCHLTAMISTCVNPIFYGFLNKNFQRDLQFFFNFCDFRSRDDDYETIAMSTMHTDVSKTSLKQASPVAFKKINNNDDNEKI
Assay: Receptor binding: inhibition of [^125 I]Peptide YY binding to human neuropeptide Y1 receptors (SK-N-MC membranes)
Conditions: not given
Method: The compounds of Formula I are valuable neuropeptide Y1 antagonists. The compounds of Formula I were tested for their ability to bind to the neuropeptide Y1 receptor subtype as measured by their inhibition of [^125 I]Peptide YY to human NPY1 receptors.
Human neuroblastoma cells, SK-N-MC, obtained from American Type Culture Collection were grown in Dulbecco's modified Eagle medium (Gibco) containing 10% fetal bovine serum and 100 units per mL/100 μg/mL penicillin/streptomycin (Gibco). After cells were confluent, growth media was replaced with fresh media and cells were allowed to continue growing for an additional 24 hours. Cells were then harvested in a buffer consisting of the following: 25 mM Tris(hydroxymethyl)amino methane (Tris), pH 7.4, 6 mM MgCl2, 250 μg/mL bacitracin, 250 μg/mL aprotinin, 250 μg/mL leupeptin, 250 μg/mL 4-(2-aminoethyl)-benzenesulfonylfluoride hydrochloride (Peflabloc) (Pentapharm AG). Growth media was removed and cells were lifted from the flasks with Dulbecco's phosphate buffered saline (D-PBS) containing 0.02% ethylenediaminetetraacetic acid (EDTA). Cells were pelleted and homogenized using a polytron, and broken membranes were pelleted by centrifugation at 18,000 rpm for 10 minutes at 4° C. The pelleted membranes were resuspended in the above buffer and frozen at […].
D-PBS (Gibco) pH 7.4, containing 0.5 g/L bacitracin and […] bovine serum albumin (BSA), was used in the preparation of compound and radiolabel. Each assay tube consisted of the following: […] of compound or buffer, 100 μL[^125 I]-PYY (Peptide YY) (30 pM), and 50 μL SK-N-MC preparation containing 50 μg/tube membrane protein for a total volume of 250 μL/tube. Non-specific binding was defined by the addition of 300 nM final concentration of neuropeptide Y. After addition of all reagents, tubes were shaken while incubating for 60 minutes at room temperature. The assay was terminated by filtering through a Whatman GF/C filter previously saturated with 0.1% polyethylenimine in 10 mM Tris, pH 7.5 containing 0.1% BSA. Filters were punched from the filter mat, placed in tubes, and counted for 1 minute using a gamma counter. The Ki was determined using the Graph PAD data analysis software program.

Work on Nc1cc(S(=O)(=O)c2ccc([N+](=O)[O-])cc2)c([N+](=O)[O-])c2cccnc12 [Example 8, 5-Nitro-6-(4-nitro-benzenesulfonyl)-quinolin-8-ylamine] yielded a Ki of 1000 nM.

Same assay, conditions: 30 pM [^125 I]-PYY, SK-N-MC membranes, 60 minutes, room temperature, pH 7.4; read-out: Inhibition of [^125 I]Peptide YY Binding to Human Neuropeptide Y1 Receptors Ki

Point of comparison: Nc1cc(S(=O)(=O)c2cccc(Cl)c2)c([N+](=O)[O-])c2cccnc12 [Example 15, 6-(3-Chloro-benzenesulfonyl)-5-nitro-quinolin-8-ylamine], Ki 892 nM. Against it:
- Nc1cc(S(=O)(=O)c2ccccc2)c([N+](=O)[O-])c2cccnc12 [Example 1, 6-Benzenesulfonyl-5-nitro-quinolin-8-ylamine] — 3-fold lower, 297 nM
- Nc1cc(S(=O)(=O)c2ccc(Cl)cc2)c([N+](=O)[O-])c2cccnc12 [Example 2, 6-(4-Chloro-benzenesulfonyl)-5-nitro-quinolin-8-ylamine] — 2-fold higher, 1750 nM
- COc1ccc(S(=O)(=O)c2cc(N)c3ncccc3c2[N+](=O)[O-])cc1 [Example 3, 6-(4-Methoxy-benzenesulfonyl)-5-nitro-quinolin-8-ylamine] — within 1.5-fold, 1140 nM
- Cc1ccc(S(=O)(=O)c2cc(N)c3ncccc3c2[N+](=O)[O-])cc1 [Example 4, 5-Nitro-6-(toluene-4-sulfonyl)-quinolin-8-ylamine] — 1.5-fold lower, 594 nM
- Nc1cc(S(=O)(=O)c2ccc3ccccc3c2)c([N+](=O)[O-])c2cccnc12 [Example 5, 6-(Naphthalene-2-sulfonyl)-5-nitro-quinolin-8-ylamine] — within 1.5-fold, 1200 nM
- Cc1ccc(C)c(S(=O)(=O)c2cc(N)c3ncccc3c2[N+](=O)[O-])c1 [Example 6, 6-(2,5-Dimethyl-benzenesulfonyl)-5-nitro-quinolin-8-ylamine] — 6-fold lower, 148 nM
- CC(C)(C)c1ccc(S(=O)(=O)c2cc(N)c3ncccc3c2[N+](=O)[O-])cc1 [Example 7, 6-(4-tert-Butyl-benzenesulfonyl)-5-nitro-quinolin-8-ylamine] — 3.6-fold higher, 3200 nM
- Cc1cccc(S(=O)(=O)c2cc(N)c3ncccc3c2[N+](=O)[O-])c1 [Example 9, 5-Nitro-6-(toluene-3-sulfonyl)-quinolin-8-ylamine] — 2.4-fold lower, 373 nM
- Nc1cc(S(=O)(=O)c2ccc(O)cc2)c([N+](=O)[O-])c2cccnc12 [Example 10, 4-(8-Amino-5-nitro-quinoline-6-sulfonyl)-phenol] — 6.6-fold lower, 136 nM
- N#Cc1ccc(S(=O)(=O)c2cc(N)c3ncccc3c2[N+](=O)[O-])cc1 [Example 11, 4-(8-Amino-5-nitro-quinoline-6-sulfonyl)-benzonitrile] — within 1.5-fold, 854 nM
- Cc1ccccc1S(=O)(=O)c1cc(N)c2ncccc2c1[N+](=O)[O-] [Example 12, 5-Nitro-6-(toluene-2-sulfonyl)-quinolin-8-ylamine] — 7.5-fold lower, 119 nM
- Nc1cc(S(=O)(=O)c2ccccc2Cl)c([N+](=O)[O-])c2cccnc12 [Example 13, 6-(2-Chloro-benzenesulfonyl)-5-nitro-quinolin-8-ylamine] — 9.6-fold lower, 93 nM
- Cc1cccc(C)c1S(=O)(=O)c1cc(N)c2ncccc2c1[N+](=O)[O-] [Example 14, 6-(2,6-Dimethyl-benzenesulfonyl)-5-nitro-quinolin-8-ylamine] — 3-fold lower, 295 nM
- Nc1cc(S(=O)(=O)c2ccc(F)cc2)c([N+](=O)[O-])c2cccnc12 [Example 16, 6-(4-Fluoro-benzenesulfonyl)-5-nitro-quinolin-8-ylamine] — within 1.5-fold, 603 nM
- COc1cccc(S(=O)(=O)c2cc(N)c3ncccc3c2[N+](=O)[O-])c1 [Example 17, 6-(3-Methoxy-benzenesulfonyl)-5-nitro-quinolin-8-ylamine] — 2.9-fold lower, 311 nM
- CCc1ccccc1S(=O)(=O)c1cc(N)c2ncccc2c1[N+](=O)[O-] [Example 18, 6-(2-Ethyl-benzenesulfonyl)-5-nitro-quinolin-8-ylamine] — 6.9-fold lower, 129 nM
- CC(C)c1ccccc1S(=O)(=O)c1cc(N)c2ncccc2c1[N+](=O)[O-] [Example 19, 6-(2-Isopropyl-benzenesulfonyl)-5-nitro-quinolin-8-ylamine] — 19-fold lower, 48 nM
- Nc1cc(S(=O)(=O)c2cccc3ccccc23)c([N+](=O)[O-])c2cccnc12 [Example 20, 6-(Naphthalene-1-sulfonyl)-5-nitro-quinolin-8-ylamine] — 19-fold lower, 46 nM
- COc1ccccc1S(=O)(=O)c1cc(N)c2ncccc2c1[N+](=O)[O-] [Example 21, 6-(2-Methoxy-benzenesulfonyl)-5-nitro-quinolin-8-ylamine] — 1.8-fold lower, 490 nM
- Cc1ccc(S(=O)(=O)c2cc(N)c3ncccc3c2[N+](=O)[O-])c(C)c1 [Example 22, 6-(2,4-Dimethyl-benzenesulfonyl)-5-nitro-quinolin-8-ylamine] — 4-fold lower, 222 nM
- Nc1cc(S(=O)(=O)c2c(Cl)cccc2Cl)c([N+](=O)[O-])c2cccnc12 [Example 23, 6-(2,6-Dichloro-benzenesulfonyl)-5-nitro-quinolin-8-ylamine] — 3.3-fold lower, 273 nM
- Nc1cc(S(=O)(=O)c2ccccc2Br)c([N+](=O)[O-])c2cccnc12 [Example 24, 6-(2-Bromo-benzenesulfonyl)-5-nitro-quinolin-8-ylamine] — 3.8-fold lower, 234 nM
- CC(=O)Nc1ccccc1S(=O)(=O)c1cc(N)c2ncccc2c1[N+](=O)[O-] [Example 25, N-[2-(8-Amino-5-nitro-quinoline-6-sulfonyl)-phenyl]-acetamide] — 1.5-fold lower, 590 nM
- Nc1cc(S(=O)(=O)c2cccc(Cl)c2Cl)c([N+](=O)[O-])c2cccnc12 [Example 26, 6-(2,3-Dichloro-benzenesulfonyl)-5-nitro-quinolin-8-ylamine] — 9.6-fold lower, 93 nM
- Nc1cc(S(=O)(=O)c2ccccc2F)c([N+](=O)[O-])c2cccnc12 [Example 27, 6-(2-Fluoro-benzenesulfonyl)-5-nitro-quinolin-8-ylamine] — 15-fold lower, 58 nM
- CC(C)c1cccc(C(C)C)c1S(=O)(=O)c1cc(N)c2ncccc2c1[N+](=O)[O-] [Example 28, 6-(2,6-Diisopropyl-benzenesulfonyl)-5-nitro-quinolin-8-ylamine] — 19-fold lower, 48 nM
- Nc1cc(S(=O)(=O)c2ccccc2C(F)(F)F)c([N+](=O)[O-])c2cccnc12 [Example 29, 5-Nitro-6-(2-trifluoromethyl-benzenesulfonyl)-quinolin-8-ylamine] — 11-fold lower, 84 nM
- Nc1cc(S(=O)(=O)c2cc(Cl)ccc2Cl)c([N+](=O)[O-])c2cccnc12 [Example 30, 6-(2,5-Dichloro-benzenesulfonyl)-5-nitro-quinolin-8-ylamine] — 3.2-fold lower, 283 nM
- CC(C)(C)c1ccccc1S(=O)(=O)c1cc(N)c2ncccc2c1[N+](=O)[O-] [Example 31, 6-(2-tert-Butyl-benzenesulfonyl)-5-nitro-quinolin-8-ylamine] — 1.6-fold higher, 1400 nM
